Patent US8563779B2, “(4-trifluoromethyl-3-thiobenzoyl)cyclohexanediones and use thereof as herbicides” (Bayer CropScience AG, priority 2010, dated 2013)

Legend:
PHBPU [1] = assay: Post-emergence herbicidal action against weed plants; assay type: in vivo, Pharbitis purpureum; conditions: scored after 3 to 4 weeks under glass
Protocol: (§1) [table] 2. Post-emergence Herbicidal Action Against Weed Plants Seeds of monocotyledonous and dicotyledonous weed plants are set out in cardboard pots in sandy loam soil, covered with soil, and cultivated under glass under good growth conditions. Two to three weeks after sowing, the trial plants are treated at the three-leaf stage. The compounds according to the invention, formulated as wettable powders or as emulsifiable concentrates, are sprayed onto the surface of the green parts of the plants, at a water application rate of 600 to 800 l/ha (converted). After the trial plants have stood for 3 to 4 weeks under optimum growth conditions under glass, the action of the compounds according to the invention is scored in comparison to compounds disclosed in the prior art.

EPHHL = assay: as above; assay type: in vivo, Euphorbia heterophylla; conditions: dose 12.5 g a.c./ha, scored after 3 to 4 weeks under glass
Protocol: as §1

ALOMY [2] = assay: Pre-emergence herbicidal action against weed plants; assay type: in vivo, Alopecurus myosuroides; conditions: dose 320 g a.c./ha, scored after 3 to 4 weeks under glass
Description: (§2) Water-dispersible granules are also obtained by homogenizing and precomminuting, in a colloid mill, • 25 parts by weight of a compound of the formula (I), • 5 parts by weight of sodium 2,2′-dinaphthylmethane-6,6′-disulfonate, • 2 parts by weight of sodium oleoylmethyltaurinate, • 1 part by weight of polyvinyl alcohol, • 17 parts by weight of calcium carbonate and • 50 parts by weight of water, subsequently grinding the mixture in a bead mill and atomizing and drying the resulting suspension in a spray tower by means of a single-fluid nozzle. C. BIOLOGICAL EXAMPLES 1. Pre-emergence Herbicidal Action Against Weed Plants
(§3) Seeds or rhizome sections of mono- and dicotyledonous weed plants are set out in pots of 9 to 13 cm in diameter, in sandy loam soil, and are covered with soil. The herbicides, formulated as emulsifiable concentrates or dusts, are applied to the surface of the covering earth in the form of aqueous dispersions or suspensions or emulsions, at a water application rate of 300 to 800 l/ha (converted). The pots are then maintained under glass under optimum conditions for the further cultivation of the plants. After 3 to 4 weeks under optimum growth conditions under glass, the trial plants are scored for the effect of the compounds according to the invention in comparison to compounds disclosed in the prior art.

PHBPU [3] = assay: as above; assay type: in vivo, Pharbitis purpureum; conditions: dose 320 g a.c./ha, scored after 3 to 4 weeks under glass
Description: as §2, §3

VIOTR = assay: as above; assay type: in vivo, Viola tricolor; conditions: dose 320 g a.c./ha, scored after 3 to 4 weeks under glass
Description: as §2, §3

MATIN = assay: Post-emergence herbicidal action against weed plants; assay type: in vivo, Matricaria inodora; conditions: dose 50 g a.c./ha, scored after 3 to 4 weeks under glass
Protocol: as §1

PAPRH = assay: as above; assay type: in vivo, Papaver rhoeas; conditions: dose 50 g a.c./ha, scored after 3 to 4 weeks under glass
Protocol: as §1

CYPES = assay: Pre-emergence herbicidal action against weed plants; assay type: in vivo, Cyperus serotinus; conditions: dose 320 g a.c./ha, scored after 3 to 4 weeks under glass
Description: as §2, §3

POLCO = assay: as above; assay type: in vivo, Polygonum convolvulus; conditions: dose 320 g a.c./ha, scored after 3 to 4 weeks under glass
Description: as §2, §3

ALOMY [4] = assay: Post-emergence herbicidal action against weed plants; assay type: in vivo, Alopecurus myosuroides; conditions: dose 80 g a.c./ha, scored after 3 to 4 weeks under glass
Protocol: as §1

AMARE [5] = assay: Pre-emergence herbicidal action against weed plants; assay type: in vivo; conditions: dose 320 g a.c./ha, scored after 3 to 4 weeks under glass
Description: as §2, §3

LOLMU [6] = assay: as above; assay type: in vivo, Lolium multiflorum; conditions: dose 320 g a.c./ha, scored after 3 to 4 weeks under glass
Description: as §2, §3

ABUTH = assay: Post-emergence herbicidal action against weed plants; assay type: in vivo, Abutilon theophrasti; conditions: dose 80 g a.c./ha, scored after 3 to 4 weeks under glass
Protocol: as §1

AMARE [7] = assay: as above; assay type: in vivo; conditions: dose 80 g a.c./ha, scored after 3 to 4 weeks under glass
Protocol: as §1, with “2.” for “[table] 2.”

LOLMU [8] = assay: as above; assay type: in vivo, Lolium multiflorum; conditions: dose 80 g a.c./ha, scored after 3 to 4 weeks under glass
Protocol: as §1

SMILES: Cc1c(C(=O)c2cnn(C)c2O)ccc(C(F)(F)F)c1S(C)(=O)=O
- Herbicidal action against PHBPU (PHBPU [1]; dose 12.5 g a.c./ha): 50%
- Herbicidal action against EPHHL (EPHHL): 45%

SMILES: Cc1c(C(=O)c2cnn(C)c2O)ccc(C(F)(F)F)c1[S+](C)[O-] (stereo not shown)
- Herbicidal action against ALOMY (ALOMY [2]): 70%
- Herbicidal action against PHBPU (PHBPU [3]): 50%
- Herbicidal action against VIOTR (VIOTR): 90%
- Herbicidal action against MATIN (MATIN): 74%
- Herbicidal action against PAPRH (PAPRH): 55%

SMILES: CCn1ncc(C(=O)c2ccc(C(F)(F)F)c(S(C)(=O)=O)c2C)c1O
- Herbicidal action against ALOMY (ALOMY [2]): 50%
- Herbicidal action against CYPES (CYPES): 60%
- Herbicidal action against POLCO (POLCO): 60%

SMILES: CCn1ncc(C(=O)c2ccc(C(F)(F)F)c([S+](C)[O-])c2C)c1O (stereo not shown)
- Herbicidal action against ALOMY (ALOMY [2]): 70%
- Herbicidal action against PHBPU (PHBPU [3]): 0%
- Herbicidal action against ALOMY (ALOMY [4]): 60%
- Herbicidal action against PHBPU (PHBPU [1]; dose 80 g a.c./ha): 80%

SMILES: Cc1nn(C)c(O)c1C(=O)c1ccc(C(F)(F)F)c(S(C)(=O)=O)c1C
- Herbicidal action against ALOMY (ALOMY [2]): 50%
- Herbicidal action against CYPES (CYPES): 50%
- Herbicidal action against AMARE (AMARE [5]): 90%

SMILES: Cc1nn(C)c(O)c1C(=O)c1ccc(C(F)(F)F)c([S+](C)[O-])c1C (stereo not shown)
- Herbicidal action against ALOMY (ALOMY [2]): 60%
- Herbicidal action against VIOTR (VIOTR): 40%
- Herbicidal action against LOLMU (LOLMU [6]): 60%
- Herbicidal action against ABUTH (ABUTH): 80%
- Herbicidal action against AMARE (AMARE [7]): 50%
- Herbicidal action against LOLMU (LOLMU [8]): 30%

SMILES: Cc1c(C(=O)C2C(=O)C3CCC(C3)C2=O)ccc(C(F)(F)F)c1[S+](C)[O-] (stereo not shown) [inventive compound No. 1-9]
- Herbicidal action against ALOMY (ALOMY [2]): 100%
- Herbicidal action against PHBPU (PHBPU [3]): 80%
- Herbicidal action against VIOTR (VIOTR): 100%
- Herbicidal action against LOLMU (LOLMU [6]): 90%
- Herbicidal action against MATIN (MATIN): 95%
- Herbicidal action against PAPRH (PAPRH): 95%
- Herbicidal action against ALOMY (ALOMY [4]): 80%
- Herbicidal action against PHBPU (PHBPU [1]; dose 80 g a.c./ha): 90%
- Herbicidal action against ABUTH (ABUTH): 100%
- Herbicidal action against AMARE (AMARE [7]): 90%
- Herbicidal action against LOLMU (LOLMU [8]): 80%

SMILES: Cc1c(C(=O)C2C(=O)C3CCC(C3)C2=O)ccc(C(F)(F)F)c1S(C)(=O)=O (stereo not shown) [inventive compound No. 1-17]
- Herbicidal action against ALOMY (ALOMY [2]): 90%
- Herbicidal action against CYPES (CYPES): 90%
- Herbicidal action against POLCO (POLCO): 100%
- Herbicidal action against AMARE (AMARE [5]): 100%
- Herbicidal action against PHBPU (PHBPU [1]; dose 12.5 g a.c./ha): 85%
- Herbicidal action against EPHHL (EPHHL): 85%
